In patent US6451854B1, “α-amino acid phenyl ester derivatives” (Akzo Nobel N.V., priority 1998, dated 2002):
pIC50: −log10 of the molar value. Counter-ions that a name gives are not always drawn.

How the values were obtained:
GABAA receptors = assay: inhibition of [35S]-TBPS binding to rat whole brain membranes; details: concentration required to inhibit 50% of [35S]-TBPS binding
Text: γ-Aminobutyric acid (GABA) is the major inhibitory neurotransmitter within the central nervous system and it is probable that compounds potentiating the effects of GABA at GABAA receptors will induce anaesthesia (S. A. Zimmerman, M. V. Jones and N. L. Harrison, J. Pharmacol. Exp. Therap. 1994, 270, 987-991; N. P. Franks and W. R. Lieb, Nature 1994, 367, 607-614). Indeed there is compelling evidence that many hypnotics exert their biological activity via modulation of GABAA receptors, including steroids, barbiturates, benzodiazepines and propofol (D. L. Tanelian, P. Kosek, I. Mody and M. B. Maclver, Anesthesiology 1993, 78, 757-776).
The in vitro effect of the compounds of the invention at GABAA receptors was assessed through determination of their ability to inhibit [^35S]-TBPS ([^35S]-tert-butyl bicyclophosphorothionate) binding to rat whole brain membranes. The concentration of α-amino acid phenyl ester derivative required to inhibit 50% of binding of [^35S]-TBPS was determined. These in vitro experiments were carried out as described in detail by Anderson et al., J.Med.Chem. 1997, 40, 1668-1681.

mice = assay: hypnotic activity: loss of righting reflex after intravenous administration in mice; assay type: in vivo; details: Mus musculus, iv, dose causing loss of righting reflex for minimum 30 seconds in 50% of mice, intravenous injection over 10 seconds; read-out: HD50 (the source's name)
Protocol: The hypnotic potency of the α-amino acid phenyl ester derivatives of the invention was determined upon their intravenous administration in mice. The dose required to cause a loss of righting reflex for a minimum period of 30 seconds in 50% of treated mice after intravenous injection over 10 seconds was determined. This dose is termed the HD50 (hypnotic dose50) and is expressed in μmol.kg^−1.

COCCN(CCOC)C(C)C(=O)Oc1c(OC)cccc1OC (racemic) (as salt: hydrochloride) [Example 7f, (±)-2-[N-bis(2-methoxyethyl)amino]propionic acid, 2,6-dimethoxyphenyl ester hydrochloride (1:1) salt]
melting point: 114 to 116 °C

COCCN(CCOC)C(C)C(=O)Oc1c(OC)cc(C)cc1OC (racemic) (as salt: hydrochloride) [Example 7e, (±)-2-[N-bis(2-methoxyethyl)amino]propionic acid, 2,6-dimethoxy-4-methylphenyl ester hydrochloride (1:1) salt]
melting point: 96 to 97 °C

CCC(C(=O)Oc1c(OC)cccc1OC)N(CCOC)CCOC (racemic) [Example 7c, (±)-2-[N-bis(2-methoxyethyl)amino]butyric acid, 2,6-dimethoxyphenyl ester hydrochloride (1:1) salt]
pIC50 (GABAA receptors): 5.00
ED50 (mice): 19 µmol/kg

CCC(C(=O)Oc1c(OC)cc(C)cc1OC)N(CCOC)CCOC (racemic) [Example 7b, (±)-2-[N-bis(2-methoxyethyl)amino]butyric acid, 2,6-dimethoxy-4-methylphenyl ester hydrochloride (1:1) salt]
pIC50 (GABAA receptors): 4.74
ED50 (mice): 22 µmol/kg

CCOCCN(CCOCC)[C@H](CC)C(=O)Oc1c(OC)cccc1OC [Example 7z, R-(+)-2-[N-bis(2-ethoxyethyl)amino]butyric acid, 2,6-dimethoxyphenyl ester hydrochloride (1:1) salt]
pIC50 (GABAA receptors): 4.74
ED50 (mice): 19 µmol/kg
